In patent US7524853B2 (Solvay Pharmaceuticals B.V., priority 2003, dated 2009):

Assays:
Type in all cases: cell-based
[1] = biological target: T1, 17β-hydroxysteroid dehydrogenase type 3 (17β-HSD type 3) (Homo sapiens, UniProt P37058); experiment: Inhibition of 17β-HSD type 3 in MCF-7 cells stably expressing the isoenzyme (tritium labeled androstenedione conversion, HPLC); conditions: MCF7, MCF-7 cells expressing 17β-HSD type 3, 2 nM tritium labeled androstenedione; for inhibition at 1 µM: 1 μM test compound, read-out: % Inhibition HSD3 1 μM; for inhibition at 10 µM: 10 μM test compound, read-out: % Inhibition HSD3 10 μM
T1 construct: expressed in transfected cells; host or cells: MCF-7
T1 sequence (P37058 1-310): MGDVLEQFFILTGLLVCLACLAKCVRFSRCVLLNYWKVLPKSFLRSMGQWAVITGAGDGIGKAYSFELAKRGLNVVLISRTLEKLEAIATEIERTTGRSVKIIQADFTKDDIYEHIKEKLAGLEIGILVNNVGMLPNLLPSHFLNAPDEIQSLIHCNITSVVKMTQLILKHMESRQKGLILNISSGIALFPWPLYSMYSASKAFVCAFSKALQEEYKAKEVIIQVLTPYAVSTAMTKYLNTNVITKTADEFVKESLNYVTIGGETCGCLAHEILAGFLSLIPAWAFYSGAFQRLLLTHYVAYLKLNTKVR
From the text: (§1) Biological Testing Materials and Methods 1. Inhibition of the 17β-hydroxysteroid dehydrocienase type 1, type 2 and type 3 enzyme
(§2) The compounds were screened in respect of 17β-HSD enzyme activity in vitro on established MCF-7 cell lines, each stably expressing one of the respective 17β-HSD isoenzymes. The interconversion of substrate by each isoenzyme and the 17β-HSD inhibiting activity of chemical compounds in these cell lines were detected by HPLC system.
(§3) Varying amounts of the test compounds were incubated in the growth medium of the 17β-HSD expressing cells together tritium labeled substrate (2 nM estrone for 17β-HSD type 1; 2 nM estradiol for 17β-HSD type 2; and 2 nM androstenedione for 17β-HSD type 3). The medium samples were removed after exact incubation time and the reaction is stopped by trichloroacetic acid (TCA). The samples were analyzed by HPLC-coupled flow scintillation analysis.
(§4) For each enzyme type, the HSD-inhibiting activity of an individual test compound was calculated by comparing the conversion of a control sample without any test compound (referred to as “Negative Control”) to the (reduced) conversion of the test sample containing the particular compound to be tested (referred to as “Test Sample”).
(§5) Two concentrations of each compound were used. The number of the compound refers to the numbers indicated in the Experimental Section.

[2] = biological target: T2, 17β-hydroxysteroid dehydrogenase type 1 (17β-HSD type 1) (Homo sapiens, UniProt P14061); experiment: Inhibition of 17β-HSD type 1 in MCF-7 cells stably expressing the isoenzyme (tritium labeled estrone conversion, HPLC); conditions: MCF7, MCF-7 cells expressing 17β-HSD type 1, 2 nM tritium labeled estrone; for inhibition at 1 µM: 1 μM test compound, read-out: % Inhibition HSD1 1 μM; for inhibition at 10 µM: 10 μM test compound, read-out: % Inhibition HSD1 10 μM
T2 construct: expressed in transfected cells; host or cells: MCF-7
T2 sequence (P14061 1-328): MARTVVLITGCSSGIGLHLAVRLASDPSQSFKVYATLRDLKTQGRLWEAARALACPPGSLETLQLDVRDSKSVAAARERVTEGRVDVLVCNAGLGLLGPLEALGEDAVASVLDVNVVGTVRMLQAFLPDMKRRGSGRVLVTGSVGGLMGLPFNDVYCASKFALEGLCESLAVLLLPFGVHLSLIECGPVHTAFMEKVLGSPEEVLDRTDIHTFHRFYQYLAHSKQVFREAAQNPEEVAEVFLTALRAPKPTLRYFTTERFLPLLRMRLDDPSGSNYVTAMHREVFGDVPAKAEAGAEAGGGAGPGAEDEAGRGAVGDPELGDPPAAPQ
From the text: as §1, §2, §3, §4, §5

[3] = biological target: T3, 17β-hydroxysteroid dehydrogenase type 2 (17β-HSD type 2) (Homo sapiens, UniProt P37059); experiment: Inhibition of 17β-HSD type 2 in MCF-7 cells stably expressing the isoenzyme (tritium labeled estradiol conversion, HPLC); conditions: MCF7, MCF-7 cells expressing 17β-HSD type 2, 2 nM tritium labeled estradiol; for inhibition at 1 µM: 1 μM test compound, read-out: % Inhibition HSD2 1 μM; for inhibition at 10 µM: 10 μM test compound, read-out: % Inhibition HSD2 10 μM
T3 construct: expressed in transfected cells; host or cells: MCF-7
T3 sequence (P37059 1-387): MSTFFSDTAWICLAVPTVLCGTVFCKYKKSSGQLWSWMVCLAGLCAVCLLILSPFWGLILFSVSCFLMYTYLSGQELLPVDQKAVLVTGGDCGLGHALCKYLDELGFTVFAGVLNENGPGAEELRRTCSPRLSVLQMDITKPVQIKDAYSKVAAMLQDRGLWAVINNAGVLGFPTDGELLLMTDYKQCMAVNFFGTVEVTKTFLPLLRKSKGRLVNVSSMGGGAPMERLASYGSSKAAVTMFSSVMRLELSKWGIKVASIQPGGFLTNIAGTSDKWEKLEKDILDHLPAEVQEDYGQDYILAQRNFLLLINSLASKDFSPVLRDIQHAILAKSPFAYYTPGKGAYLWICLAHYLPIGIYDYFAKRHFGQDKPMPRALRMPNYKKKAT
From the text: as §1, §2, §3, §4, §5

Structure (SMILES) | inhibition at 1 µM [1] [%] | inhibition at 10 µM [1] [%] | inhibition at 1 µM [2] [%] | inhibition at 10 µM [2] [%] | inhibition at 1 µM [3] [%] | inhibition at 10 µM [3] [%]
O=C(OCCn1c(-c2cccs2)nc2sc3c(c2c1=O)CCCC3)c1cccs1 [No. 69, Thiophene-2-carboxylic acid 2-(4-oxo-2-thiohen-2-yl-5,6,7,8-tetrahydro-4H-benzo[4,5]thieno[2,3-d]pyrimidin-3-yl)-ethyl ester] | -1.1 | 3.9 | 4.7 | 10.5 | 10.8 | 11.9
COc1ccc(-c2nc3sc4c(c3c(=O)n2-c2ccccc2)CCCC4=O)cc1 [No. 23, 3-Phenyl-2-(p-methoxyphenyl)-6,7-dihydro-3H,5H-benzo[4,5]thieno[2,3-d]pyrimidin-4,8-dione] | 6.8 | 15.4 | 18.6 | 45.3 | 6.8 | 9.4
COc1cc(-c2nc3sc4c(c3c(=O)n2Cc2ccccc2)CCC(Cl)C4=O)c(Cl)c(OC)c1OC (stereo not drawn) [No. 123, 3-Benzyl-7-chloro-2-(2-chloro-3,4,5-trimethoxyphenyl)-6,7-dihydro-3H,5H-benzo[4,5]thieno[2,3-d]pyrimidine-4,8-dione] | 1.3 | 29.1 | 19.4 | 62.9 | 24.6 | 40.2
CCSc1c(C=O)ccc2c1sc1nc(-c3ccc(OC)cc3)n(Cc3ccccc3)c(=O)c12 [No. 18, 3-Benzyl-8-ethylsulfanyl-2-(p-methoxyphenyl)-4-oxo-3,4-dihydro-benzo[4,5]thieno[2,3-d]pyrimidine-7-carbaldehyde] | 66.1 | 100 | 12.1 | 25.9 | 0 | 15.1
COCCn1c(-c2cccs2)nc2sc3c(c2c1=O)CCC(Br)C3=O (stereo not drawn) [No. 76, 7-Bromo-3-(2-methoxyethyl)-2-thiophen-2-yl-6,7-dihydro-3H,5H-benzo[4,5]thieno[2,3-d]pyrimidine-4,8-dione] | 47.1 | 81.4 | 35.8 | 44.1 | 44.6 | 43.4
CCCCn1c(-c2cc(OC)c(OC)c(OC)c2)nc2sc3c(c2c1=O)CCCC3 [No. 85, 3-Butyl-2-(3,4,5-trimethoxyphenyl)-5,6,7,8-tetrahydro-3H-benzo[4,5]thieno[2,3-d]pyrimidin-4-one] | -2.2 | 24.4 | 24.1 | 40.1 | 21.5 | 25.4
CCC(C)Cn1c(-c2cc(OC)c(OC)c(OC)c2Cl)nc2sc3c(c2c1=O)CCC(Cl)C3=O (stereo not drawn) [No. 141, 7-Chloro-2-(2-chloro-3,4,5-trimethoxyphenyl)-3-(2-methylbutyl)-6,7-dihydro-3H,5H-benzo[4,5]thieno[2,3-d]pyrimidine-4,8-dione] | 2.7 | 22.7 | 25 | 58.9 | 3 | 1.1
COc1cc(-c2nc3sc4c(c3c(=O)n2Cc2ccccc2)CC(C)CC4=O)cc(OC)c1OC (stereo not drawn) [No. 688, 3-Benzyl-6-methyl-2-(3,4,5-trimethoxyphenyl)-6,7-dihydro-3H,5H-benzo[4,5]thieno[2,3-d]pyrimidin-4,8-dione] | 14.4 | 22.3 | 21.5 | 21.6 | 25.4 | 14.2
COc1ccc(-c2nc3sc4c(c3c(=O)n2-c2ccccc2)CCCC4)cc1 [No. 22, 3-Phenyl-2-(p-methoxyphenyl)-5,6,7,8-tetrahydro-3H-benzo[4,5]thieno[2,3-d]pyrimidin-4-one] | -1.8 | 28.6 | 26 | 38.1 | 13 | 14.9
COc1cc(-c2nc3sc4c(O)cccc4c3c(=O)n2Cc2ccccc2)c(Br)c(OC)c1OC [No. 49, 3-Benzyl-2-(2-bromo-3,4,5-trimethoxyphenyl)-8-hydroxy-3H-benzo[4,5]thieno[2,3-d]pyrimidin-4-one] | 12.4 | 52.6 | 24.7 | 86.2 | 20.1 | 36.9
CCCc1nc2sc3c(c2c(=O)n1Cc1ccco1)CCCC3 [No. 101, 3-(Furan-2-ylmethyl)-2-propyl-5,6,7,8-tetrahydro-3H-benzo[4,5]thieno[2,3-d]pyrimidin-4-one] | 5.7 | 7.8 | 14.1 | 26 | 18 | 30
COCc1nc2sc3c(c2c(=O)n1-c1ccccc1)CCCC3=O [No. 37, 2-Methoxymethyl-3-phenyl-6,7-dihydro-3H,5H-benzo[4,5]thieno[2,3-d]pyrimidin-4,8-dione] | 9.2 | 22.2 | 9.7 | 21.4 | -0.2 | 9
COCCn1c(-c2cccs2)nc2sc3c(O)c(Br)ccc3c2c1=O [No. 148, 7-Bromo-8-hydroxy-3-(2-methoxyethyl)-2-thiophen-2-yl-3H-benzo[4,5]thieno[2,3-d]pyrimidin-4-one] | 53.7 | 97.9 | 27 | 53.2 | 29.1 | 42
Cc1nc2sc3c(c2c(=O)n1-c1ccccc1)CCC(Br)(Br)C3=O [No. 45, 7,7-Dibromo-2-methyl-3-phenyl-6,7-dihydro-3H,5H-benzo[4,5]thieno[2,3-d]pyrimidine-4,8-dione] | -2.2 | 4.1 | -7.7 | -18.3 | 3.5 | 6.5
CCCc1nc2sc3c(O)cccc3c2c(=O)n1Cc1cc(Br)ccc1O [No. 100, 3-(5-Bromo-2-hydroxybenzyl)-8-hydroxy-2-propyl-3H-benzo[4,5]thieno[2,3-d]pyrimidin-4-one] | -0.8 | 7.7 | 23.5 | 66.7 | 28.8 | 81.3
COc1cc(-c2nc3sc4c(OC(C)=O)cccc4c3c(=O)n2Cc2ccccc2)cc(OC)c1OC [No. 54, Acetic acid 3-benzyl-2-(3,4,5-trimethoxyphenyl)-4-oxo-3,4-dihydro-benzo[4,5]thieno[2,3-d]pyrimidin-8-yl ester] | 24.6 | 55.2 | 35.4 | 76.7 | 17 | 59.8
